Experimental data as given in PMC8571521, “^19F-NMR reveals substrate specificity of CYP121A1 in Mycobacterium tuberculosis” (The Journal of Biological Chemistry, 2021).

Assays:
CYP121A1 [1] = biological target: T1, CYP121A1 (Mycobacterium tuberculosis, UniProt P9WPP7, S171C); assay type: binding
T1 construct: gene cyp121

CYP121A1 [2] = biological target: T2, CYP121A1 (Mycobacterium tuberculosis, UniProt P9WPP7, I166A/S171C/I180A); assay type: binding
T2 construct: gene cyp121

Structure (SMILES): c1c[nH]cn1 [imidazole]
- 19F-NMR titration (25-200 mM) with stepwise Soret shift (CYP121A1 [1]): changes in the NMR spectra correlated closely with a stepwise shift in the Soret band of the protein
- 19F-NMR titration with absorption (Soret) readout (CYP121A1 [2]): in the I166A_I180A mutant, we observed rapid saturation for both of the NMR and wavelength absorption outputs
